Test results taken from patent US12077503B2, “Substituted cyclic amides and their use as herbicides” (FMC CORPORATION, priority 2015, dated 2024).

Legend:
Assay type in all cases: in vivo
[1] = test system: ducksalad (Heteranthera limosa); assay: Test B flooded paddy test; conditions: Flood, 250 g ai/ha; 0 to 100 scale where 0 is no effect and 100 is complete control; 13 to 15 d
Protocol: (§1) Plant species in the flooded paddy test selected from rice (Oryra sativa), sedge, umbrella (small-flower umbrella sedge, Cyperus difformis), ducksalad (Heteranthera limosa), and barnyardgrass (Echinochloa crus-galli) were grown to the 2-leaf stage for testing. At time of treatment, test pots were flooded to 3 cm above the soil surface, treated by application of test compounds directly to the paddy water, and then maintained at that water depth for the duration of the test. Treated plants and controls were maintained in a greenhouse for 13 to 15 d, after which time all species were compared to controls and visually evaluated. Plant response ratings, summarized in Table B, are based on a scale of 0 to 100 where 0 is no effect and 100 is complete control. A dash (-) response means no test result.

[2] = test system: sedge, umbrella (small-flower umbrella sedge, Cyperus difformis); assay: Test B flooded paddy test; conditions: Flood, 250 g ai/ha; 0 to 100 scale where 0 is no effect and 100 is complete control; 13 to 15 d
Protocol: as §1

rice (Oryra sativa) = assay: Test B flooded paddy test; conditions: Flood, 250 g ai/ha; 0 to 100 scale where 0 is no effect and 100 is complete control; 13 to 15 d
Protocol: as §1

[3] = test system: barnyardgrass (Echinochloa crus-galli); assay: Test B flooded paddy test; conditions: Flood, 250 g ai/ha; 0 to 100 scale where 0 is no effect and 100 is complete control; 13 to 15 d
Protocol: as §1

[4] = test system: pigweed (Amaranthus retroflexus); assay: Test A preemergence; conditions: for Plant response rating, Pigweed: 125 g ai/ha; for Pigweed plant response rating (0 to 100 scale, 0 is no effect, 100 is complete control): 500 g ai/ha, visual injury approx. 10 d
Text: (§2) Seeds of plant species selected from barnyardgrass (Echinochloa crus-galli), Kochia (Kochia scoparia), ragweed (common ragweed, Ambrosia elatior), ryegrass, Italian (Italian ryegrass, Lolium multiflorum), crabgrass, large (Digitaria sanguinalis), giant foxtail (Setaria faberii), green foxtail (Setaria viridis), morningglory (Ipomoea spp.), pigweed (Amaranthus retroflexus), velvetleaf (Abutilon theophrasti), wheat (Triticum aestivum), and corn (Zea mays) were planted into a blend of loam soil and sand and treated preemergence with a directed soil spray using test chemicals formulated in anon-phytotoxic solvent mixture which included a surfactant.
(§3) At the same time, plants selected from these crop and weed species and also blackgrass (Alopecurus myosuroides), and Galium (catchweed bedstraw, Galium aparine) were planted in pots containing the same blend of loam soil and sand and treated with postemergence applications of test chemicals formulated in the same manner. Plants ranged in height from 2 to 10 cm and were in the one- to two-leaf stage for the postemergence treatment. Treated plants and untreated controls were maintained in a greenhouse for approximately 10 d, after which time all treated plants were compared to untreated controls and visually evaluated for injury. Plant response ratings, summarized in Table A, are based on a 0 to 100 scale where 0 is no effect and 100 is complete control. A dash (-) response means no test result.

Kochia (Kochia scoparia) [5] = assay: Test A preemergence; conditions: for Plant response rating, Kochia: 125 g ai/ha; for Kochia plant response rating (0 to 100 scale, 0 is no effect, 100 is complete control): 500 g ai/ha, visual injury approx. 10 d
Text: as §2, §3

[6] = test system: ryegrass, Italian (Italian ryegrass, Lolium multiflorum); assay: Test A preemergence; conditions: for Plant response rating, Ryegrass, Italian: 125 g ai/ha; for Ryegrass, Italian plant response rating (0 to 100 scale, 0 is no effect, 100 is complete control): 500 g ai/ha, visual injury approx. 10 d
Text: as §2, §3

[7] = test system: giant foxtail (Setaria faberii); assay: Test A preemergence; conditions: for Plant response rating, Foxtail, Giant: 125 g ai/ha; for Foxtail, Giant plant response rating (0 to 100 scale, 0 is no effect, 100 is complete control): 500 g ai/ha, visual injury approx. 10 d
Text: as §2, §3

[8] = test system: ragweed (common ragweed, Ambrosia elatior); assay: Test A preemergence; conditions: for Plant response rating, Ragweed: 125 g ai/ha; for Ragweed plant response rating (0 to 100 scale, 0 is no effect, 100 is complete control): 500 g ai/ha, visual injury approx. 10 d
Text: as §2, §3

[9] = test system: barnyardgrass (Echinochloa crus-galli); assay: Test A preemergence; conditions: for Plant response rating, Barnyardgrass: 125 g ai/ha; for Barnyardgrass plant response rating (0 to 100 scale, 0 is no effect, 100 is complete control): 500 g ai/ha, visual injury approx. 10 d
Text: as §2, §3

[10] = test system: pigweed (Amaranthus retroflexus); assay: Test A postemergence
Text: as §2, §3

Kochia (Kochia scoparia) [11] = assay: Test A postemergence
Text: as §2, §3

[12] = test system: ryegrass, Italian (Italian ryegrass, Lolium multiflorum); assay: Test A postemergence
Text: as §2, §3

[13] = test system: Galium (catchweed bedstraw, Galium aparine); assay: Test A postemergence
Text: as §2, §3

[14] = test system: giant foxtail (Setaria faberii); assay: Test A postemergence
Text: as §2, §3

[15] = test system: wheat (Triticum aestivum); assay: Test A postemergence
Text: as §2, §3

[16] = test system: ragweed (common ragweed, Ambrosia elatior); assay: Test A postemergence
Text: as §2, §3

[17] = test system: blackgrass (Alopecurus myosuroides); assay: Test A postemergence
Text: as §2, §3

corn (Zea mays) = assay: Test A postemergence
Text: as §2, §3

[18] = test system: barnyardgrass (Echinochloa crus-galli); assay: Test A postemergence
Text: as §2, §3

[19] = Preemergence, visual injury after approximately 10 d, 0 to 100 scale where 0 is no effect and 100 is complete control
[20] = 125 g ai/ha, postemergence, visual rating after approx. 10 d, 0 to 100 scale (0 no effect, 100 complete control)
[21] = Postemergence, 500 g ai/ha, 0 to 100 scale where 0 is no effect and 100 is complete control
[22] = preemergence, 0 to 100 scale (0 no effect, 100 complete control)
[23] = 125 g ai/ha, postemergence, visual injury rating on 0 to 100 scale (0 no effect, 100 complete control), approx. 10 d
[24] = 500 g ai/ha, postemergence, 0 to 100 scale, 0 no effect, 100 complete control

O=C1NCC(c2cc(F)ccc2F)C1C(=O)Nc1ccc(F)cc1F (racemic) [Compound 545]
Plant response rating, Ducksalad [1]: 0
Plant response rating, Sedge, Umbrella [2]: 0
Plant response rating, Rice (rice (Oryra sativa)): 0
Plant response rating, Barnyardgrass [3]: 0
Plant response rating, Pigweed [4, 19]: 0
Pigweed plant response rating (0 to 100 scale, 0 is no effect, 100 is complete control) ([4]; Preemergence): 0
Plant response rating, Kochia (Kochia (Kochia scoparia) [5]; [19]): 0
Kochia plant response rating (0 to 100 scale, 0 is no effect, 100 is complete control) (Kochia (Kochia scoparia) [5]; Preemergence): 0
Plant response rating, Ryegrass, Italian [6, 19]: 0
Ryegrass, Italian plant response rating (0 to 100 scale, 0 is no effect, 100 is complete control) ([6]; Preemergence): 0
Plant response rating, Foxtail, Giant [7, 19]: 80
Foxtail, Giant plant response rating (0 to 100 scale, 0 is no effect, 100 is complete control) ([7]; Preemergence): 90
Plant response rating, Ragweed [8, 19]: 0
Ragweed plant response rating (0 to 100 scale, 0 is no effect, 100 is complete control) ([8]; Preemergence): 0
Plant response rating, Barnyardgrass [9, 19]: 20
Barnyardgrass plant response rating (0 to 100 scale, 0 is no effect, 100 is complete control) ([9]; Preemergence): 70
Plant response rating, Pigweed [10, 20]: 0
Plant response rating, Pigweed [10, 21]: 0
Plant response rating, Kochia (Kochia (Kochia scoparia) [11]; [20]): 0
Plant response rating, Kochia (Kochia (Kochia scoparia) [11]; [21]): 0
Plant response rating, Ryegrass, Italian [12, 20]: 0
Plant response rating, Ryegrass, Italian [12, 21]: 0
Plant response rating, Galium [13, 20]: 0
Plant response rating, Galium [13, 21]: 0
Plant response rating, Foxtail, Giant [14, 20]: 0
Plant response rating, Foxtail, Giant [14, 21]: 70
Plant response rating, Wheat [15, 20]: 0
Plant response rating, Wheat [15, 21]: 0
Plant response rating, Ragweed [16, 20]: 0
Plant response rating, Ragweed [16, 21]: 0
Plant response rating, Blackgrass [17, 20]: 0
Plant response rating, Blackgrass [17, 21]: 0
Plant response rating, Corn (corn (Zea mays); [20]): 0
Plant response rating, Corn (corn (Zea mays); [21]): 0
Plant response rating, Barnyardgrass [18, 20]: 0
Plant response rating, Barnyardgrass [18, 21]: 80

CN1CC(c2ccc(Cl)cc2)C(C(=O)Nc2ccc(F)cc2F)C1=O (stereo not drawn) [Compound 436]
Plant response rating, Ducksalad [1]: 100
Plant response rating, Sedge, Umbrella [2]: 0
Plant response rating, Rice (rice (Oryra sativa)): 0
Plant response rating, Barnyardgrass [3]: 60
Plant response rating, Pigweed [4, 22]: 80
Pigweed plant response rating (0 to 100 scale, 0 is no effect, 100 is complete control) ([4]; Preemergence): 90
Plant response rating, Kochia (Kochia (Kochia scoparia) [5]; [22]): 70
Kochia plant response rating (0 to 100 scale, 0 is no effect, 100 is complete control) (Kochia (Kochia scoparia) [5]; Preemergence): 80
Plant response rating, Ryegrass, Italian [6, 22]: 40
Ryegrass, Italian plant response rating (0 to 100 scale, 0 is no effect, 100 is complete control) ([6]; Preemergence): 60
Plant response rating, Foxtail, Giant [7, 22]: 90
Foxtail, Giant plant response rating (0 to 100 scale, 0 is no effect, 100 is complete control) ([7]; Preemergence): 100
Plant response rating, Ragweed [8, 22]: 0
Ragweed plant response rating (0 to 100 scale, 0 is no effect, 100 is complete control) ([8]; Preemergence): 50
Plant response rating, Barnyardgrass [9, 22]: 90
Barnyardgrass plant response rating (0 to 100 scale, 0 is no effect, 100 is complete control) ([9]; Preemergence): 100
Pigweed plant response rating [10, 23]: 20
Plant response rating, Pigweed [10, 24]: 60
Kochia plant response rating (Kochia (Kochia scoparia) [11]; [23]): 40
Plant response rating, Kochia (Kochia (Kochia scoparia) [11]; [24]): 70
Ryegrass, Italian plant response rating [12, 23]: 20
Plant response rating, Ryegrass, Italian [12, 24]: 50
Galium plant response rating [13, 23]: 60
Plant response rating, Galium [13, 24]: 60
Foxtail, Giant plant response rating [14, 23]: 80
Plant response rating, Foxtail, Giant [14, 24]: 90
Wheat plant response rating [15, 23]: 20
Plant response rating, Wheat [15, 24]: 40
Ragweed plant response rating [16, 23]: 0
Plant response rating, Ragweed [16, 24]: 20
Blackgrass plant response rating [17, 23]: 30
Plant response rating, Blackgrass [17, 24]: 40
Corn plant response rating (corn (Zea mays); [23]): 0
Plant response rating, Corn (corn (Zea mays); [24]): 40
Barnyardgrass plant response rating [18, 23]: 90
Plant response rating, Barnyardgrass [18, 24]: 90
